According to the CheMixHub viscosity set:

Assay: xn = mol fraction of the nth substance listed

CCCCC(CC)COP(=O)(O)OCC(CC)CCCC (centres undefined) + CCC(=O)O
303.15 K, 101 kPa
Details	viscosity [mPa·s]
x1 = 0.0668	1.394
x1 = 0.1278	1.986
x1 = 0.2286	3.022
x1 = 0.3182	4.286
x1 = 0.4677	6.968
x1 = 0.5096	7.792
x1 = 0.5879	9.486
x1 = 0.6584	11.01
x1 = 0.7068	12.08
x1 = 0.7594	13.3
x1 = 0.814	14.5
x1 = 0.8783	16.08
x1 = 0.9378	17.59

C[N+](=O)[O-] + CC(C)O
viscosity [mPa·s]
Details	293.15 K	298.15 K	303.15 K	313.15 K
101 kPa, x1 = 0.1361	–	1.599	–	–
101 kPa, x1 = 0.2622	–	1.267	–	–
101 kPa, x1 = 0.3785	–	1.025	–	–
101 kPa, x1 = 0.4866	–	0.8807	–	–
101 kPa, x1 = 0.5871	–	0.7784	–	–
101 kPa, x1 = 0.6805	–	0.7133	–	–
101 kPa, x1 = 0.7685	–	0.6771	–	–
101 kPa, x1 = 0.8503	–	0.6562	–	–
101 kPa, x1 = 0.9277	–	0.6386	–	–
101.33 kPa, x2 = 0.0502	0.629	–	0.561	0.504
101.33 kPa, x2 = 0.1001	0.624	–	0.552	0.494
101.33 kPa, x2 = 0.1501	0.623	–	0.55	0.49
101.33 kPa, x2 = 0.2003	0.633	–	0.554	0.491
101.33 kPa, x2 = 0.25	0.649	–	0.564	0.496
101.33 kPa, x2 = 0.3	0.672	–	0.579	0.507
101.33 kPa, x2 = 0.35	0.701	–	0.597	0.518
101.33 kPa, x2 = 0.4001	0.731	–	0.616	0.535
101.33 kPa, x2 = 0.4501	0.772	–	0.647	0.552
101.33 kPa, x2 = 0.5	0.817	–	0.679	0.574
101.33 kPa, x2 = 0.55	0.868	–	0.716	0.601
101.33 kPa, x2 = 0.6	0.927	–	0.758	0.639
101.33 kPa, x2 = 0.65	1	–	0.811	0.673
101.33 kPa, x2 = 0.7	1.082	–	0.867	0.71
101.33 kPa, x2 = 0.75	1.182	–	0.937	0.764
101.33 kPa, x2 = 0.8	1.326	–	1.044	0.837
101.33 kPa, x2 = 0.85	1.485	–	1.154	0.917
101.33 kPa, x2 = 0.9	1.698	–	1.302	1.023
101.33 kPa, x2 = 0.95	1.988	–	1.503	1.159
